Measured values as given in patent US9295732B2, “Conjugated TLR7 and/or TLR8 and TLR2 polycationic agonists” (CAYLA, priority 2013, dated 2016).

Experiments:
[1] = test system: B16-F1 cells; assay: Cell transfection with SEAP plasmid, B16-F1; format: cell-based, mouse; conditions: in complex with pVitro14 LGFP SEAP plasmid, 48 hours, SEAP expression; FIG. 5B
Protocol: (§1) The TLR7-TLR2 molecules were tested for their ability as polyamine molecules to transport plasmid DNA (pDNA) into cells. The pVitro14 LGFP SEAP plasmid (InvivoGen) was complexed to TLR7-TLR2 polyamine molecules and to the control cationic lipid transfection agent, LyoVec™ (InvivoGen). The human HEK293 (ATCC, CRL-1573) and mouse B16-F1 melanoma (ATCC, CRL-6323) cell lines were seeded at a density of 50 000 cells/well and 20 000 cells/well respectively, in the absence or presence of different volumes of the plasmid encoding for the SEAP protein in complex with TLR7-TLR2 polyamine molecules for 48 hours at 37° C. and 10% CO2. Transfection efficiency was assessed by measuring SEAP reporter gene expression: 20 μl of supernatant was sampled and mixed with 180 μl of QUANTI-Blue™ Detection (InvivoGen). In the presence of alkaline phosphatase SEAP, the color of QUANTI-Blue™ changes from pink to purple/blue. The intensity of the blue hue reflects the activity of SEAP. The levels of SEAP secretion were determined quantitatively by reading the OD at 620-655 nm using a spectrophotometer, iMark™ Microplate Reader (BIO-RAD).

[2] = test system: plasmid DNA (pDNA); assay: Gel shift (mobility shift) assay of pDNA complexation; format: binding; conditions: pDNA:molecule ratio 3:24 (w:w), 0.8% agarose gel, compared to pDNA alone
In short: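 Complexes of pDNA with TLR7-TLR2 polyamine molecules run on 0.8% agarose in TAE at 135 V for 21 min, ethidium bromide stained and viewed under UV. Complexation scored as partial or complete retardation of pDNA migration versus pDNA alone, complexed pDNA appearing as a smear in wells.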

[3] = molecular target: T1, human TLR2 (Homo sapiens, UniProt O60603); assay: HEK-Blue hTLR2 NF-κB/AP-1 SEAP reporter assay; format: cell-based; conditions: HEK-Blue hTLR2 cells, 10 μg/mL to 10 pg/ml, 24 hours, OD at 655 nm, FIG. 3
T1 construct: host or cells: HEK293 (HEK-Blue™ hTLR2)
In short: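 HEK293 cells stably expressing the given TLR, or RAW 264.7-derived cells (50,000 or 100,000 cells/well respectively), carry an NF-κB/AP-1-inducible SEAP reporter. Conjugated TLR7-TLR2 agonists at final 10 μg/mL to 10 pg/ml, 24 h at 37° C. SEAP read colorimetrically as OD at 655 nm in detection medium.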

[4] = test system: ISG54 promoter activity in RAW-ISG54 reporter cells; assay: IFN response assay, RAW-ISG54 luciferase reporter cells; format: cell-based, mouse; conditions: in complexes with pDNA 3:24 (w:w), overnight, FIG. 6A
Protocol: The effect of the pDNA:TLR7-TLR2 polyamine molecules complexes on inducing an interferon response was examined. pDNA:TLR7-TLR2 polyamine molecules mixtures (pDNA:TLR7-TLR2 polyamine molecules ratio 3:24, w:w) in serum-free medium or 5% glucose were prepared as described above and added to IFN reporter cells. Luciferase reporter cell lines were used to assay interferon response. A plasmid containing an interferon-inducible luciferase reporter gene was introduced into mouse RAW 264.7 macrophages and mouse B16 melanoma cells, giving rise to the RAW-ISG54 and B16-ISG54 reporter cell lines respectively. Expression of the luciferase reporter gene by the plasmid is under the control of an interferon-inducible promoter (I-ISG54) comprising five interferon-stimulated response elements (ISRE) and the minimal promoter of the human ISG-54K (Interferon Stimulation of a Gene encoding a 54 kDa protein) gene. The ISG-54K gene is induced by interferon regulatory factor 3 (IRF3), which has a key involvement in […] responses (Grandvaux et al. 2002) and the minimal promoter of the human ISG-54K gene contains two ISRE sites and fully inducible by type I interferons (IFN-α and IFN-β) and interferon regulatory factors (IRFs) (Wathelet et al. 1988; Grandvaux et al. 2002).
The RAW-ISG54 and B16-ISG54 reporter cell lines were seeded onto 96 well microtiter plates at 100,000 cells per well and 75,000 cells per well respectively. Cells were cultured in DMEM supplemented with 10% (v/v) heat inactivated fetal bovine serum (30 min at 56° C.), 4.5 g/I glucose, 2 mM L-glutamine, 50 U/ml penicillin, 50 μg/ml streptomycin, 100 μg/ml Normocin™ (InvivoGen) together with pDNA:TLR7-TLR2 polyamine complexes at 37° C. overnight. pDNA:TLR7-TLR2 polyamine molecules complexes were prepared as described above prior to adding to the IFN reporter cells. The induced luciferase expression was assessed in the reporter cell lines using a coelenterazine-base luminescence assay reagent, the Quanti-Luc™ (InvivoGen). Secreted luciferase activity was determined by bioluminescence quantification of the cell culture media using a microplate luminometer (FLUOstar OPTIMA from BMG Labtech).

[5] = test system: HEK293 cells; assay: Cell transfection with SEAP plasmid, HEK293; format: cell-based, human; conditions: in complex with pVitro14 LGFP SEAP plasmid, 48 hours, SEAP expression; FIG. 5A
Protocol: as §1

T1 sequence (O60603 21-784): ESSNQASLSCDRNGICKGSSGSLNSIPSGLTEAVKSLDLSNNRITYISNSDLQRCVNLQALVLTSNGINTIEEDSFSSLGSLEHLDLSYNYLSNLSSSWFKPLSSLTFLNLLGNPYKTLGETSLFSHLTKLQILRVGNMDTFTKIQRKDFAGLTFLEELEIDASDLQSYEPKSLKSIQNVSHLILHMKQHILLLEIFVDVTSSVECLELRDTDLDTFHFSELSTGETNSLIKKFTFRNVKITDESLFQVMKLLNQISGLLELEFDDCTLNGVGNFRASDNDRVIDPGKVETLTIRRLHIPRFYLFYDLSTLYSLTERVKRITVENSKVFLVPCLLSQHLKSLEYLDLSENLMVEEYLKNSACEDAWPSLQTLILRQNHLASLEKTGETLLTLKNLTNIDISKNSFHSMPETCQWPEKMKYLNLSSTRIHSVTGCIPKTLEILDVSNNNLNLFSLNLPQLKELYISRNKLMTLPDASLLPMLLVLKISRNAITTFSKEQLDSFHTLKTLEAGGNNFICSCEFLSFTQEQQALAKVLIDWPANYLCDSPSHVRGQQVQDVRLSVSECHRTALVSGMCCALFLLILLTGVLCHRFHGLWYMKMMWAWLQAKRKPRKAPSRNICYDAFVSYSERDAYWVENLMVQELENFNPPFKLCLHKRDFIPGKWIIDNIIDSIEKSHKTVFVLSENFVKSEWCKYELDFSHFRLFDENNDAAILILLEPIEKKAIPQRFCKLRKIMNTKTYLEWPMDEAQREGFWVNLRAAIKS

Compound | ability to activate hTLR2 [3] | ability to transfect B16-F1 cells [1] | ability to complex pDNA (retardation of pDNA migration in agarose gel) [2] | ability to induce an IFN response in RAW-ISG54 reporter cells [4] | ability to transfect HEK293 cells [5]
CCCCCCCCCCCCCCCC(=O)N[C@@H](CSCC(COC(=O)CCCCCCCCCCCCCCC)OC(=O)CCCCCCCCCCCCCCC)C(=O)N[C@@H](CO)C(=O)N[C@@H](CCCCN)C(=O)N[C@@H](CCCCN)C(=O)N[C@@H](CCCCN)C(=O)N[C@@H](CCCCN)C(=O)Nc1ccc(Cn2c(O)nc3c(N)nc(NCCCC)nc32)cc1 (stereo partly drawn) [CL534, ((6R,9S,12S,15S,18S,21S)-25-amino-21-(4-((6-amino-2-(butylamino)-8-hydroxy-9H-purin-9-yl)methyl)phenylcarbamoyl)-12,15,18-tris(4-aminobutyl)-9-(hydroxylmethyl)-7,10,13,16,19-pentaoxo-6-palmitamido-4-thia-8,11,14,17,20-pentaazapentacosane-1,2-diyl dipalmitate] | activate hTLR2 | lack the ability to transfect cells | inability to migrate through an agarose gel |  | lack the ability to transfect cells
CCCCCCCCCCCCCCCC(=O)OCC(CSC[C@H](N)C(=O)NCCCNCCCCNCCCNC(=O)CNC(=O)c1ccc(Cn2c(O)nc3c(N)nc(NCCCC)nc32)cc1)OC(=O)CCCCCCCCCCCCCCC (stereo partly drawn) [CL553, (20R)-20-amino-1-(4-((6-amino-2-(butylamino)-8-hydroxy-9H-purin-9-yl)methyl)phenyl)-1,4,19-trioxo-22-thia-2,5,9,14,18-pentaazapentacosane-24,25-diyl dipalmitate] | activate hTLR2 | transfect B16-F1 cells | inability to migrate through an agarose gel | induce an IFN response in RAW-ISG54 reporter cells | transfect HEK293 cells
(6S,9S,12S,15S,18S,21R)-6,25-diamino-21-(4-((6-amino-2-(butylamino)-8-hydroxy-9H-purin-9-yl)methyl)phenylcarbamoyl)-12,15,18-tris(4-aminobutyl)-9-(hydroxyl methyl)-7,10,13,16,19-pentaoxo-4-thia-8,11,14,17,20-pentaazapentacosane-1,2-diyl dipalmitate [CL413] | activate hTLR2 | lack the ability to transfect cells | inability to migrate through an agarose gel | induce an IFN response in RAW-ISG54 reporter cells | lack the ability to transfect cells

Now from value to compound, other results behind:

ability to activate hTLR2 [3] | Compound | ability to transfect B16-F1 cells [1] | ability to complex pDNA (retardation of pDNA migration in agarose gel) [2] | ability to induce an IFN response in RAW-ISG54 reporter cells [4] | ability to transfect HEK293 cells [5]
activate hTLR2 | CCCCCCCCCCCCCCCC(=O)OCC(CSC[C@H](N)C(=O)N[C@@H](COC(=O)c1ccc(Cn2c(O)nc3c(N)nc(NCCCC)nc32)cc1)C(=O)NCCCNCCCCNCCCN)OC(=O)CCCCCCCCCCCCCCC (stereo partly drawn) [CL514, (6R,9S)-6,23-diamino-9-((4-((6-amino-2-(butylamino)-8-hydroxy-9H-purin-9-yl)methyl)benzoyloxy)methyl)-7,10-dioxo-4-thia-8,11,15,20-tetraazatricosane-1,2-diyl dipalmitate] | transfect B16-F1 cells | inability to migrate through an agarose gel | induce an IFN response in RAW-ISG54 reporter cells | transfect HEK293 cells
activate hTLR2 | CCCCCCCCCCCCCCCC(=O)OCC(CSC[C@H](N)C(=O)N[C@@H](CCC(=O)NCCCNCCCCNCCCN)C(=O)Nc1ccc(Cn2c(O)nc3c(N)nc(NCCCC)nc32)cc1)OC(=O)CCCCCCCCCCCCCCC (stereo partly drawn) [CL527, (6R,9S)-6,25-diamino-9-(4-((6-amino-2-(butylamino)-8-hydroxy-9H-purin-9-yl)methyl)phenylcarbamoyl)-7,12-dioxo-4-thia-8,13,17,22-tetraazapentacosane-1,2-diyl dipalmitate] | transfect B16-F1 cells | inability to migrate through an agarose gel | induce an IFN response in RAW-ISG54 reporter cells | transfect HEK293 cells
